Data published in ChEMBL document CHEMBL4049401, “Three-component, one-pot synthesis of anthranilamide Schiff bases bearing 4-aminoquinoline moiety as Mycobacterium tuberculosis gyrase inhibitors” (Bioorg Med Chem Lett, 2017).
In brackets after ≈: the same amount, converted by molar mass.

Columns and labels:
[1] = tested on: Mycobacterium tuberculosis; test: Antimycobacterial activity against Mycobacterium tuberculosis H37Rv ATCC 27294 after 5 days by microplate alamar blue assay; format: functional; details: H37Rv ATCC 27294, 120 h
[2] = n-octanol/water partition coefficient, log P of the compound; format: physicochemical
[3] = Cytotoxicity against African green monkey Vero cells assessed as cell viability at 100 uM by MTT assay relative to control; format: cell-based; details: chlorocebus sabaeus, read-out: Activity

SMILES	MIC [1]	logP [2]	viability at 100 µM [3]
O=C(NNc1ccnc2cc(Cl)ccc12)c1ccccc1/N=C/c1ccc(Cl)cc1Cl	6.25 µM (≈ 2.94 µg/mL)	6.22	87.6%
CN(C)c1ccc(/C=N/c2ccccc2C(=O)NNc2ccnc3cc(Cl)ccc23)cc1	3.12 µM (≈ 1.39 µg/mL)	5.03	88.8%
O=C(NNc1ccnc2cc(Cl)ccc12)c1ccccc1/N=C/C=C/c1ccccc1	3.12 µM (≈ 1.33 µg/mL)	5.54	90.2%
COc1cc(/C=N/c2ccccc2C(=O)NNc2ccnc3cc(Cl)ccc23)cc(OC)c1OC	6.25 µM (≈ 3.07 µg/mL)	4.94	89.4%
Cc1ccc(/C=N/c2ccccc2C(=O)NNc2ccnc3cc(Cl)ccc23)cc1	0.78 µM (≈ 0.324 µg/mL)	5.31	87.1%
O=C(NNc1ccnc2cc(Cl)ccc12)c1ccccc1/N=C/c1cc2ccccc2nc1Cl	25 µM (≈ 12.2 µg/mL)	6	94.3%
O=C(NNc1ccnc2cc(Cl)ccc12)c1ccccc1/N=C/c1ccc(F)cc1	6.25 µM (≈ 2.62 µg/mL)	5.18	90.7%
O=C(NNc1ccnc2cc(Cl)ccc12)c1ccccc1/N=C/c1cccs1	6.25 µM (≈ 2.54 µg/mL)	4.78	89.5%
O=C(NNc1ccnc2cc(Cl)ccc12)c1ccccc1/N=C/c1ccc(Cl)c(Cl)c1	25 µM (≈ 11.7 µg/mL)	6.22	90.2%
COc1cc(/C=N/c2ccccc2C(=O)NNc2ccnc3cc(Cl)ccc23)ccc1Oc1ccnc2cc(Cl)ccc12	3.12 µM (≈ 1.9 µg/mL)	7.74	89.5%
O=C(NNc1ccnc2cc(Cl)ccc12)c1ccccc1/N=C/c1ccc([N+](=O)[O-])cc1	25 µM (≈ 11.1 µg/mL)	4.58	88.6%
O=C(NNc1ccnc2cc(Cl)ccc12)c1ccccc1/N=C/c1ccc(Cl)cc1	3.12 µM (≈ 1.36 µg/mL)	5.62	86.7%
COc1ccc(/C=N/c2ccccc2C(=O)NNc2ccnc3cc(Cl)ccc23)cc1	1.56 µM (≈ 0.672 µg/mL)	5	88.9%
O=C(NNc1ccnc2cc(Cl)ccc12)c1ccccc1/N=C/c1cccc(Cl)c1Cl	6.25 µM (≈ 2.94 µg/mL)	6.1	89.1%
N#Cc1ccc(/C=N/c2ccccc2C(=O)NNc2ccnc3cc(Cl)ccc23)cc1	25 µM (≈ 10.6 µg/mL)	4.83	87.2%
COc1ccc(/C=N/c2ccccc2C(=O)NNc2ccnc3cc(Cl)ccc23)cc1OC	6.25 µM (≈ 2.88 µg/mL)	4.97	89.2%
O=C(NNc1ccnc2cc(Cl)ccc12)c1ccccc1/N=C/c1ccc(Br)cc1	6.25 µM (≈ 3 µg/mL)	5.76	88.5%
O=C(NNc1ccnc2cc(Cl)ccc12)c1ccccc1/N=C/c1ccncc1	25 µM (≈ 10 µg/mL)	3.86	85.7%
O=C(NNc1ccnc2cc(Cl)ccc12)c1ccccc1/N=C/c1cc2ccccc2[nH]c1=O	25 µM (≈ 11.7 µg/mL)	4.65	91.1%
O=C(NNc1ccnc2cc(Cl)ccc12)c1ccccc1/N=C/c1ccc(O)cc1	25 µM (≈ 10.4 µg/mL)	4.65	90.1%
O=C(NNc1ccnc2cc(Cl)ccc12)c1ccccc1/N=C/c1ccccc1Cl	25 µM (≈ 10.9 µg/mL)	5.5	88.5%
O=C(O)c1cn(C2CC2)c2cc(N3CCNCC3)c(F)cc2c1=O [CIPROFLOXACIN]	12.5 µM (≈ 4.14 µg/mL)		
NC(=O)c1cnccn1 [PYRAZINAMIDE]	3.12 µM (≈ 0.384 µg/mL)	-0.71	
